The numbers were not newly measured in US20110237832A1, “SYNTHESIS OF HDAC INHIBITORS: TRICHOSTATIN A AND ANALOGUES” (University of Notre Dame du Lac, priority 2010, published 2011), which cites them from elsewhere.

The series has as its system HDACs. As to conditions: read-out: inhibits the activity of HDACs, IC50 value; in human T cells.

`CC(/C=C/C(=O)NO)=C\[C@@H](C)C(=O)c1ccc(N(C)C)cc1` [TSA, (+)-Trichostatin A]: the IC50 is 70 nM.

What is called IC50 is the point on the concentration scale where inhibition reaches its midpoint.
